Measurements reported in patent publication US20100130738A1 (priority 2007, published 2010).

What was measured:
[1] = tested on: histamine-induced bronchoconstriction in guinea pigs; test: Histamine-induced bronchoconstriction reaction in guinea pigs; format: in vivo, guinea pig; settings: Cavia porcellus, iv, 0.5 min, compound 0.3 mg/kg i.v., measured 30 seconds after administration, histamine 12.5 μg/kg i.v., read-out: Inhibition rate (histamine-induced bronchoconstriction)
Procedure: Guinea pigs were anesthetized with pentobarbital (30 mg/kg, i.p.). A cannula for intravenous administration, a cannula for collecting blood and measuring blood pressure, and a tracheal cannula were inserted into the left external jugular vein, right internal carotid artery, and trachea, respectively. The guinea pigs were maintained on artificial respiration under conditions of 60 times/min and 10 mL/kg/stroke. The overflowing air from the side branch of the tracheal cannula was measured by a bronchospasm transducer (Ugo-Basile) and recorded on a computer via Power Lab (ADInstruments Japan). The guinea pigs were immobilized with gallamine (10 mg/kg, i.v.), and histamine (12.5 μg/kg, i.v.) was administered at 10-minute intervals. After the histamine-induced bronchoconstriction became stable, the compound (0.3 mg/kg, i.v.) was administered. The histamine-induced bronchoconstriction reaction was measured 30 seconds after the compound administration to examine the bronchoconstriction inhibitory activity of the compound. The bronchoconstriction was recorded as the airflow value, and the results were represented by the ratio of the maximum value of the histamine-induced airflow 30 seconds after administration to the maximum value of the airflow before administration. Also, the test compounds dissolved in DMSO were used. Further, the indications were as follows: inhibition rate≧90% (+++), 90%>inhibition rate≧80% (++), and 80%>inhibition rate≧60% (+).

[2] = biological target: T1, PDE3A catalytic domain (PDE3Acat) (Homo sapiens, UniProt Q14432); test: Phosphodiesterase inhibitory activity, recombinant PDE3Acat, [3H]cAMP; format: biochemical; settings: 30° C. 20 minutes, read-out: IC50 (μmol/L) PDE3
T1 construct: isolate the cDNA of a PDE3A catalytic domain; made in house; host or cells: Sf9 insect cells (baculovirus, Bac-to-Bac / Gateway)
T1 sequence (Q14432 674-1093 limits assumed): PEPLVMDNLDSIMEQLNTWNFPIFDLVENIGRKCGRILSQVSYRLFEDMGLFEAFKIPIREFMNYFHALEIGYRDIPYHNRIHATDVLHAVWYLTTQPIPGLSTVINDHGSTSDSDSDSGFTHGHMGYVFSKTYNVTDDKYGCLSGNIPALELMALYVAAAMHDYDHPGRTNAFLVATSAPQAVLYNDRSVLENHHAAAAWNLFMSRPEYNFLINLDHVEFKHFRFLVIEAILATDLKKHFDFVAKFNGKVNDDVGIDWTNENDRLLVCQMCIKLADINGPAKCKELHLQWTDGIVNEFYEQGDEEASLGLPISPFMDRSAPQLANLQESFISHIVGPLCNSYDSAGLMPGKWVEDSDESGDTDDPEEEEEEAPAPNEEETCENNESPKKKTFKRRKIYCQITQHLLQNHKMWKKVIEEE

PDE4Bcat = biological target: T2, PDE4Bcat (Homo sapiens, UniProt Q07343); test: Phosphodiesterase inhibitory activity, recombinant PDE4Bcat, [3H]cAMP; format: biochemical; settings: 30° C. 20 minutes, read-out: IC50 (μmol/L) PDE4
T2 construct: made in house; host or cells: Sf9 insect cells (baculovirus, Bac-to-Bac / Gateway)
T2 sequence (Q07343 330-659 limits assumed): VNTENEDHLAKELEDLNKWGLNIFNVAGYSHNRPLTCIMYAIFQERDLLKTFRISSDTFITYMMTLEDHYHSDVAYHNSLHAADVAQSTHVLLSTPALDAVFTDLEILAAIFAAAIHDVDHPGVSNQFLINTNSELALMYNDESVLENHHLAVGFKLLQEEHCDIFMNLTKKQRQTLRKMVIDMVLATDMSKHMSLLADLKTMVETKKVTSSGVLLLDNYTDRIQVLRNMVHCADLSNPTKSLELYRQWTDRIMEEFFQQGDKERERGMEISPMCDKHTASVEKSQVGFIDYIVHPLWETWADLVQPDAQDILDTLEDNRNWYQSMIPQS

SMILES	IC50 [2]	IC50 (PDE4Bcat)	inhibition in vivo at 0.3 mg/kg [1]
CCc1ccc2c(C3=NN(CCCCOc4ccc(C5=NNC(=O)CC5)cc4)C(=O)C3(C)C)ccc(OC)c2n1 [Example 200, 5-(2-Ethyl-8-methoxyquinolin-5-yl)-2-[4-[4-(6-oxo-1,4,5,6-tetrahydropyridazin-3-yl)phenoxy]butyl]-4,4-dimethyl-2,4-dihydro-pyrazol-3-one]	0.1 to 1 µmol/L	0.01 to 0.1 µmol/L	≥ 90%
CCc1ccc2c(C3=NN(CCCCOc4ccc(C5=NNC(=O)C5(C)C)cc4F)C(=O)C3(C)C)ccc(OC)c2n1 [Example 202, 5-(2-Ethyl-8-methoxyquinolin-5-yl)-2-[4-[2-fluoro-4-(4,4-dimethyl-5-oxo-4,5-dihydro-1H-pyrazol-3-yl)phenoxy]butyl]-4,4-dimethyl-2,4-dihydro-pyrazol-3-one]	0.01 to 0.1 µmol/L	0.01 to 0.1 µmol/L	60 to 80%
CCc1ccc2c(C3=NN(CCCCOc4ccc(C5=NNC(=O)C5(C)C)c(F)c4F)C(=O)C3(C)C)ccc(OC)c2n1 [Example 203, 5-(2-Ethyl-8-methoxyquinolin-5-yl)-2-[4-[2,3-difluoro-4-(4,4-dimethyl-5-oxo-4,5-dihydro-1H-pyrazol-3-yl)phenoxy]butyl]-4,4-dimethyl-2,4-dihydro-pyrazol-3-one]	< 0.01 µmol/L	0.01 to 0.1 µmol/L	≥ 90%
COc1ccc(C2=NN(CCCCOc3ccc(C4=NNC(=O)CC4C)cc3)C(=O)C2(C)C)c2cccnc12 (stereo not drawn) [Example 212, 5-(8-Methoxyquinolin-5-yl)-2-[4-[4-(4-methyl-6-oxo-1,4,5,6-tetrahydropyridazin-3-yl)phenoxy]butyl]-4,4-dimethyl-2,4-dihydro-pyrazol-3-one]	< 0.01 µmol/L	0.01 to 0.1 µmol/L	≥ 90%
COc1ccc(C2=NN(CCCCOc3ccc(C4=NNC(=O)C4(C)C)c(F)c3F)C(=O)C2(C)C)c2cccnc12 [Example 213, 2-[4-[2,3-Difluoro-4-(4,4-dimethyl-5-oxo-4,5-dihydro-1H-pyrazol-3-yl)phenoxy]butyl]-5-(8-methoxyquinolin-5-yl)-4,4-dimethyl-2,4-dihydro-pyrazol-3-one]	< 0.01 µmol/L	0.01 to 0.1 µmol/L	≥ 90%
COc1ccc(C2=NN(CCCCOc3ccc(C4=NNC(=O)CC4C)c(F)c3F)C(=O)C2(C)C)c2cccnc12 (stereo not drawn) [Example 214, 2-[4-[2,3-Difluoro-4-(4-methyl-6-oxo-1,4,5,6-tetrahydropyridazin-3-yl)phenoxy]butyl]-5-(8-methoxyquinolin-5-yl)-4,4-dimethyl-2,4-dihydro-pyrazol-3-one]	< 0.01 µmol/L	0.01 to 0.1 µmol/L	≥ 90%
COc1ccc(C2=NN(CCCCOc3ccc(C4=NNC(=O)CC4C)cc3F)C(=O)C2(C)C)c2cccnc12 (stereo not drawn) [Example 215, 2-[4-[2-Fluoro-4-(4-methyl-6-oxo-1,4,5,6-tetrahydropyridazin-3-yl)phenoxy]butyl]-5-(8-methoxyquinolin-5-yl)-4,4-dimethyl-2,4-dihydro-pyrazol-3-one]	< 0.01 µmol/L	0.01 to 0.1 µmol/L	≥ 90%
COc1ccc(C2=NN(CCCCOc3ccc(C4=NNC(=O)CC4)c(F)c3F)C(=O)C2(C)C)c2[nH]c(C(F)(F)F)nc12 [Example 219, 2-[4-[2,3-Difluoro-4-(6-oxo-1,4,5,6-tetrahydropyridazin-3-yl)phenoxy]butyl]-5-(4-methoxy-2-trifluoromethyl-1H-benzo[d]imidazol-7-yl)-4,4-dimethyl-2,4-dihydro-pyrazol-3-one]	< 0.01 µmol/L	< 0.01 µmol/L	≥ 90%
COc1ccc(C2=NN(CCCCOc3ccc(C4=NNC(=O)C4(C)C)c(F)c3F)C(=O)C2(C)C)c2[nH]c(C(F)(F)F)nc12 [Example 220, 2-[4-[2,3-Difluoro-4-(4,4-dimethyl-5-oxo-4,5-dihydro-1H-pyrazol-3-yl)phenoxy]butyl]-5-(4-methoxy-2-trifluoromethyl-1H-benzo[d]imidazol-7-yl)-4,4-dimethyl-2,4-dihydro-pyrazol-3-one]	0.01 to 0.1 µmol/L	< 0.01 µmol/L	≥ 90%
COc1ccc(C2=NN(CCCCOc3ccc(C4=NNC(=O)CC4C)c(F)c3F)C(=O)C2(C)C)c2[nH]c(C(F)(F)F)nc12 (stereo not drawn) [Example 221, 2-[4-[2,3-Difluoro-4-(4-methyl-6-oxo-1,4,5,6-tetrahydropyridazin-3-yl)phenoxy]butyl]-5-(4-methoxy-2-trifluoromethyl-1H-benzo[d]imidazol-7-yl)-4,4-dimethyl-2,4-dihydro-pyrazol-3-one]	< 0.01 µmol/L	< 0.01 µmol/L	≥ 90%
COc1ccc(C2=NN(CCCCOc3ccc(C4=NNC(=O)CC4C)c(F)c3F)C(=O)C2(C)C)c2sc(C(F)(F)F)nc12 (stereo not drawn) [Example 228, 2-[4-[2,3-Difluoro-4-(4-methyl-6-oxo-1,4,5,6-tetrahydropyridazin-3-yl)phenoxy]butyl]-5-(4-methoxy-2-trifluoromethylbenzo[d]thiazol-7-yl)-4,4-dimethyl-2,4-dihydro-pyrazol-3-one]	< 0.01 µmol/L	< 0.01 µmol/L	80 to 90%

More lines, main results first:

IC50 [2]	IC50 (PDE4Bcat)	SMILES	inhibition in vivo at 0.3 mg/kg [1]
< 0.01 µmol/L	< 0.01 µmol/L	COc1ccc(C2=NN(CCCCOc3ccc(C4=NNC(=O)CC4)c(F)c3F)C(=O)C2(C)C)c2sc(C(F)(F)F)nc12 [Example 229, 2-[4-[2,3-Difluoro-4-(6-oxo-1,4,5,6-tetrahydropyridazin-3-yl)phenoxy]butyl]-5-(4-methoxy-2-trifluoromethylbenzo[d]thiazol-7-yl)-4,4-dimethyl-2,4-dihydro-pyrazol-3-one]	≥ 90%
< 0.01 µmol/L	< 0.01 µmol/L	COc1ccc(C2=NN(CCCCOc3ccc(C4=NNC(=O)CC4C)c(F)c3F)C(=O)C2(C)C)n2cc(C(F)(F)F)nc12 (stereo not drawn) [Example 234, 2-[4-[2,3-Difluoro-4-(4-methyl-6-oxo-1,4,5,6-tetrahydropyridazin-3-yl)phenoxy]butyl]-5-(8-methoxy-2-trifluoromethylimidazo[1,2-a]pyridin-5-yl)-4,4-dimethyl-2,4-dihydro-pyrazol-3-one]	80 to 90%
< 0.01 µmol/L	< 0.01 µmol/L	COc1ccc(C2=NN(CCCCOc3ccc(C4=NNC(=O)CC4)c(F)c3F)C(=O)C2(C)C)n2cc(C(F)(F)F)nc12 [Example 235, 2-[4-[2,3-Difluoro-4-(6-oxo-1,4,5,6-tetrahydropyridazin-3-yl)phenoxy]butyl]-5-(8-methoxy-2-trifluoromethylimidazo[1,2-a]pyridin-5-yl)-4,4-dimethyl-2,4-dihydro-pyrazol-3-one]	80 to 90%
0.01 to 0.1 µmol/L	< 0.01 µmol/L	COc1ccc(C2=NN(CCCCOc3ccc(C4=NNC(=O)C4(C)C)c(F)c3F)C(=O)C2(C)C)n2cc(C(F)(F)F)nc12 [Example 236, 2-[4-[2,3-Difluoro-4-(4,4-dimethyl-5-oxo-4,5-dihydro-1H-pyrazol-3-yl)phenoxy]butyl]-5-(8-methoxy-2-trifluoromethylimidazo[1,2-a]pyridin-5-yl)-4,4-dimethyl-2,4-dihydro-pyrazol-3-one]	60 to 80%
0.1 to 1 µmol/L	0.1 to 1 µmol/L	CCc1ccc2c(C3=NN(CCCCOc4ccc(C5=NNC(=O)CC5)cc4OC)C(=O)C3(C)C)ccc(OC)c2n1 [Example 238]	60 to 80%
< 0.01 µmol/L	0.1 to 1 µmol/L	CCc1ccc2c(C3=NN(CCCOc4ccc(C5=NNC(=O)CC5C)c(F)c4F)C(=O)C3(C)C)ccc(OC)c2n1 (stereo not drawn) [Example 241, 5-(2-Ethyl-8-methoxyquinolin-5-yl)-2-[4-[2,3-difluoro-4-(4-methyl-6-oxo-1,4,5,6-tetrahydropyridazin-3-yl)phenoxy]propyl]-4,4-dimethyl-2,4-dihydro-pyrazol-3-one]	≥ 90%
